Where “and” joins values, the source holds several entries; their conditions need not be identical. Identical values can stand only once.
Experiments:
[1] = biological target: endocannabinoid receptor type 2 (CB2) (Homo sapiens, UniProt P34972); conditions: cited from earlier work
vaginal tissue construct = assay: microarray analysis of differential gene expression (Affymetrix Human Gene 1.0 ST arrays), tissues treated for seven days via culture medium; format: cell-based
Description: The data from the Affymetrix Human Gene 1.0 ST arrays were normalized using the Robust Multiarray Average (RMA) algorithm and a Chip Definition File (CDF) that maps the probes on the array to unique Entrez Gene identifiers. The result is a matrix in which each column corresponds to a sample. The expression values are log 2-transformed by default.
By using a fold change >1.5, an analysis of differentially expressed genes was done to identify those genes which were involved in the cornified envelope, keratinocyte differentiation, cell differentiation, epidermis development, epithelial cell differentiation, junctional proteins and signaling, immune response and innate immune response.

[2] = down-regulated by this fold, given without sign

endocannabinoid receptor type 2 (CB2), sequence (P34972 whole entry, species assumed): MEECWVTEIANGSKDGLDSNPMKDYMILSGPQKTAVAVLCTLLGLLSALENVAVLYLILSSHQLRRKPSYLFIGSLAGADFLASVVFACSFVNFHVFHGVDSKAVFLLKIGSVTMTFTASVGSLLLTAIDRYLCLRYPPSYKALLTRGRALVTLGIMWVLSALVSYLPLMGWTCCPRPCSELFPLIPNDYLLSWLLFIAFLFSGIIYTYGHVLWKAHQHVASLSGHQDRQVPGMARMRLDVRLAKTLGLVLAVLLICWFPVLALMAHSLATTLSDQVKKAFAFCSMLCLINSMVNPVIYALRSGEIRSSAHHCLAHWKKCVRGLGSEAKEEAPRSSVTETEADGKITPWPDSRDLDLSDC

## CCCC(C)(C)c1ccc2c(c1)OC(C)(C)[C@@H]1CC=C(C)C[C@@H]21 [JWH-133]
[1]
  agonist type by receptor internalization: full agonist
Vaginal tissue construct
  SPRR2D Fold Change: 2.839 fold
  WFDC12 Fold Change: 5.534 fold
Vaginal tissue construct; [2]
  CFB down-regulation: 2.167 fold
  CFH down-regulation: 1.681 fold
Vaginal tissue construct; gene Anterior gradient homolog 2 (Xenopus laevis)
  AGR2 Fold Change: −2.5 fold
Vaginal tissue construct; gene C-X-C motif chemokine ligand 8
  CXCL8 Expr Fold Change: −2.155 fold
Vaginal tissue construct; gene C-X-C motif chemokine ligand 17
  CXCL17 Expr Fold Change: −1.881 fold
Vaginal tissue construct; gene C-X-C motif chemokine receptor 2
  CXCR2 Expr Fold Change: 2.121 fold
Vaginal tissue construct; gene CD14 molecule
  CD14 Expr Fold Change: −2.286 fold
Vaginal tissue construct; gene CD74 molecule
  CD74 Expr Fold Change: −1.676 fold
Vaginal tissue construct; gene CD151 molecule (Raph blood group)
  CD151 Expr Fold Change: −1.653 fold
Vaginal tissue construct; gene CD244 molecule
  CD244 Expr Fold Change: 2.489 fold
Vaginal tissue construct; gene Corneodesmosin
  CDSN Fold Change: 6.888 fold
Vaginal tissue construct; gene C−C motif chemokine ligand 28
  CCL28 Expr Fold Change: −2.39 fold
Vaginal tissue construct; gene FYN binding protein 1
  FYB1 Expr Fold Change: −2.398 fold
Vaginal tissue construct; gene Interferon Epsilon
  IFNE Fold Change: 4.439 fold
Vaginal tissue construct; gene Interleukin 19
  IL19 Fold Change: −2.2 fold
Vaginal tissue construct; gene NLR family pyrin domain containing 10
  NLRP10 Fold Change: 10.11 fold
Vaginal tissue construct; gene RNAse family
  RNAse7 Fold Change: 6.145 fold
Vaginal tissue construct; gene T cell lymphoma invasion and metastasis 1
  TIAM1 Expr Fold Change: 2.018 fold
Vaginal tissue construct; gene TNF alpha induced protein 8
  TNFAIP8 Expr Fold Change: −1.724 fold
Vaginal tissue construct; gene TNF receptor superfamily member 10c
  TNFRSF10C Expr Fold Change: −2.114 fold
Vaginal tissue construct; gene TNF receptor superfamily member 11b
  TNFRSF11B Expr Fold Change: −2.006 fold
Vaginal tissue construct; gene Tetraspanin 1
  TSPAN1 Fold Change: −1.9 fold
Vaginal tissue construct; gene Transglutaminase 1
  TGM1 Fold Change: 1.809 fold
Vaginal tissue construct; gene Transglutaminase 3
  TGM3 Fold Change: 23.784 fold and 24 fold
Vaginal tissue construct; gene Transglutaminase 5
  TGM5 Fold Change: 2.346 fold
Vaginal tissue construct; gene Tripartite motif-containing 31
  TRIM31 Fold Change: −4.5 fold
Vaginal tissue construct; gene V-set domain containing T cell activation inhibitor 1
  VTCN1 Expr Fold Change: −2.694 fold
Vaginal tissue construct; gene WAP four-disulfide core domain 2
  WFDC2 Fold Change: −2.6 fold
Vaginal tissue construct; gene WAP four-disulfide core domain 5
  WFDC5 Fold Change: 2.807 fold
Vaginal tissue construct; gene arachidonate 12-lipoxygenase, 12R type
  ALOX12B Fold Change: 6.023 fold
Vaginal tissue construct; gene arachidonate 12-lipoygenase
  ALOX12 Fold Change: 1.8 fold
Vaginal tissue construct; gene arachidonate lipoxygenase 3
  ALOXE3 Fold Change: 2.881 fold
Vaginal tissue construct; gene arginosuccinate synthetase 1
  ASS1 Fold Change: −2.4 fold
Vaginal tissue construct; gene claudin 17
  CLDN17 Fold Change: 8.7 fold
Vaginal tissue construct; gene coiled-coil domain containing 59
  CCDC59 Expr Fold Change: −1.956 fold
Vaginal tissue construct; gene colony stimulating factor 2 receptor beta common subunit
  CSF2RB Expr Fold Change: 2.595 fold
Vaginal tissue construct; gene complement factor H
  CFH Expr Fold Change: −1.681 fold
Vaginal tissue construct; gene cornifelin
  CNFN Fold Change: 1.706 fold
Vaginal tissue construct; gene cysteine-rich C-terminal 1
  CRCT1 Fold Change: 2.3 fold
Vaginal tissue construct; gene dermokine
  DMKN Fold Change: 2.043 fold
Vaginal tissue construct; gene descmocollin 3
  DCS3 Fold Change: 1.5 fold
Vaginal tissue construct; gene desmocollin 1
  DSC1 Fold Change: 6.69 fold
Vaginal tissue construct; gene desmocollin 2
  DSC2 Fold Change: 1.6 fold
Vaginal tissue construct; gene desmoglein 1
  DSG1 Fold Change: 7.572 fold and 7.2 fold
Vaginal tissue construct; gene filaggrin
  FLG Fold Change: 3.151 fold
Vaginal tissue construct; gene filaggrin family member 2
  FLG2 Fold Change: 6.801 fold
Vaginal tissue construct; gene glycogen synthase 2 (liver)
  GYS2 Fold Change: 3.1 fold
Vaginal tissue construct; gene human keratinocyte proline rich protein
  KPRP Fold Change: 17.392 fold and 20.8 fold
Vaginal tissue construct; gene interferon induced protein with tetratricopeptide repeats 5
  IFIT5 Expr Fold Change: −1.97 fold
Vaginal tissue construct; gene interferon induced with helicase C domain 1
  IFIH1 Expr Fold Change: −2.099 fold
Vaginal tissue construct; gene interferon regulatory factor 1
  IRF1 Expr Fold Change: −3.083 fold
Vaginal tissue construct; gene interferon regulatory factor 9
  IRF9 Expr Fold Change: −1.62 fold
Vaginal tissue construct; gene interleukin 1 receptor like 2
  IL1RL2 Expr Fold Change: 2.54 fold
Vaginal tissue construct; gene interleukin 7 receptor
  IL7R Expr Fold Change: −2.062 fold
Vaginal tissue construct; gene interleukin 18 binding protein
  IL18BP Expr Fold Change: 1.523 fold
Vaginal tissue construct; gene interleukin 23 subunit alpha
  IL23A Expr Fold Change: 2.346 fold
Vaginal tissue construct; gene interleukin 33
  IL33 Expr Fold Change: −3.314 fold
Vaginal tissue construct; gene interleukin 36 alpha
  IL36A Expr Fold Change: 4.253 fold
Vaginal tissue construct; gene interleukin 36 receptor antagonist
  IL36RN Expr Fold Change: 4.029 fold
Vaginal tissue construct; gene kallikrein related peptidase 6
  KLK6 Fold Change: 4.063 fold
Vaginal tissue construct; gene kallikrein related peptidase 8
  KLK8 Fold Change: 1.504 fold
Vaginal tissue construct; gene kallikrein related peptidase 10
  KLK10 Fold Change: 2.214 fold
Vaginal tissue construct; gene kallikrein related peptidase 12
  KLK12 Fold Change: 3.882 fold
Vaginal tissue construct; gene kallikrein related peptidase 13
  KLK13 Fold Change: 3.278 fold
Vaginal tissue construct; gene keratin 1
  KRT1 Fold Change: 7.122 fold and 8.7 fold
Vaginal tissue construct; gene keratin 2
  KRT2 Fold Change: 1.764 fold
Vaginal tissue construct; gene keratin 20
  KRT20 Fold Change: −2.992 fold
Vaginal tissue construct; gene keratin 23
  KRT23 Fold Change: 1.631 fold
Vaginal tissue construct; gene keratin 24
  KRT24 Fold Change: 1.699 fold
Vaginal tissue construct; gene keratinocyte differentiation associated protein
  KRTDAP Fold Change: 9.891 fold and 10.1 fold
Vaginal tissue construct; gene late cornified envelope 1A
  LCE1A Fold Change: 1.526 fold
Vaginal tissue construct; gene late cornified envelope 1C
  LCE1C Fold Change: 2.292 fold
Vaginal tissue construct; gene late cornified envelope 1F
  LCE1F Fold Change: 1.576 fold
Vaginal tissue construct; gene late cornified envelope 2A
  LCE2A Fold Change: 4.097 fold
Vaginal tissue construct; gene late cornified envelope 2B
  LCE2B Fold Change: 7.398 fold
Vaginal tissue construct; gene late cornified envelope 2D
  LCE2C/LCE2D Fold Change: 10.393 fold
Vaginal tissue construct; gene late cornified envelope 3D
  LCE3D Fold Change: 12.6 fold
Vaginal tissue construct; gene late cornified envelope 3E
  LCE3E Fold Change: 13.5 fold
Vaginal tissue construct; gene late cornified envelope 5A
  LCE5A Fold Change: 1.571 fold
Vaginal tissue construct; gene lipase family member M
  LIPM Fold Change: 6.813 fold
Vaginal tissue construct; gene lipase family member N
  LIPN Fold Change: 4.766 fold
Vaginal tissue construct; gene lipin 1
  LIPN1 Fold Change: 3.23 fold
Vaginal tissue construct; gene loricrin
  LOR Fold Change: 5.085 fold
Vaginal tissue construct; gene lymphocyte antigen 6 family member G6C
  LY6G6C Expr Fold Change: 5.531 fold
Vaginal tissue construct; gene major histocompatibility complex, class C
  HLA-C Expr Fold Change: −1.5 fold
Vaginal tissue construct; gene major histocompatibility complex, class I, B
  HLA-B Expr Fold Change: −1.677 fold
Vaginal tissue construct; gene major histocompatibility complex, class II, DR alpha
  HLA-DRA Expr Fold Change: −1.875 fold
Vaginal tissue construct; gene major histocompatibility complex, class II, DR beta 6 (pseudogene)
  HLA-DRB6 Expr Fold Change: −1.5 fold
Vaginal tissue construct; gene malic enzyme 1, NADP(+)-dependent cytosolic
  ME1 Fold Change: 2.4 fold
Vaginal tissue construct; gene mucin like 1
  MUCL1 Fold Change: 1.4 fold
Vaginal tissue construct; gene natural killer cell cytotoxicity receptor 3 ligand 1
  NCR3LG1 Expr Fold Change: 2.076 fold
Vaginal tissue construct; gene nuclear factor of activated T cells 5
  NFAT5 Expr Fold Change: 1.924 fold
Vaginal tissue construct; gene olfactomedin 4
  OLFM4 Expr Fold Change: −3.505 fold
Vaginal tissue construct; gene pancreatic lipase-related protein 3
  PNLIPRP3 Fold Change: 1.4 fold
Vaginal tissue construct; gene phospholipase A2 group IIF
  PLA2G2F Fold Change: 1.564 fold
Vaginal tissue construct; gene phospholipase A2 group III
  PLA2G3 Fold Change: 1.953 fold
Vaginal tissue construct; gene phospholipase A2 group IVD
  PLA2G4D Fold Change: 3.604 fold
Vaginal tissue construct; gene phospholipase A2 group IVE
  PLA2G4E Fold Change: 2.225 fold
Vaginal tissue construct; gene phospholipase A2 group X
  PLA2G10 Fold Change: −2.819 fold
Vaginal tissue construct; gene placenta-specific 8
  PLAC8 Fold Change: −2.2 fold
Vaginal tissue construct; gene polymeric immunoglobulin receptor
  PIGR Fold Change: −1.8 fold
Vaginal tissue construct; gene programmed cell death 1 ligand 2
  PDCD1LG2 Expr Fold Change: −1.879 fold
Vaginal tissue construct; gene ribosomal protein S15a
  RPS15A Expr Fold Change: −1.999 fold
Vaginal tissue construct; gene serpin family B member 12
  SERPINB12 Fold Change: 4.409 fold and 4.3 fold
Vaginal tissue construct; gene signal transducer and activator of transcription 4
  STAT4 Expr Fold Change: −2.315 fold
Vaginal tissue construct; gene small proline rich protein 2G
  SPRR2G Fold Change: 7.539 fold
Vaginal tissue construct; gene small proline rich protein 4
  SPRR4 Fold Change: 2.263 fold
Vaginal tissue construct; gene suprabasin
  SBSN Fold Change: 3.488 fold and 3.4 fold
Vaginal tissue construct; gene toll like receptor 3
  TLR3 Expr Fold Change: −2.566 fold
Vaginal tissue construct; gene transient receptor potential cation channel subfamily V member 3
  TRPV3 Fold Change: 2.32 fold and 2.382 fold
Vaginal tissue construct; gene ubiquitin like modifier activating enzyme 7
  UBA7 Expr Fold Change: −1.651 fold
Vaginal tissue construct; gene vascular endothelial growth factor A
  VEGFA Fold Change: 1.2 fold
Vaginal tissue construct; microRNA 23a
  mir-23 Expr Fold Change: 2.983 fold
Vaginal tissue construct; microRNA 224
  mir-224 Expr Fold Change: 4.867 fold
